In ChEMBL document CHEMBL4610105, “Microketides A and B, Polyketides from a Gorgonian-Derived Microsphaeropsis sp. Fungus” (J Nat Prod, 2020):
Converted amounts (≈) assume the structure as drawn.

What was measured:
Vibrio parahaemolyticus = assay: Antibacterial activity against Vibrio parahaemolyticus assessed as reduction in microbial growth after 18 hrs by MTT based broth dilution method; format: functional
Bacillus subtilis = assay: Antibacterial activity against Bacillus subtilis assessed as reduction in microbial growth after 18 hrs by MTT based broth dilution method; format: functional
Nocardia brasiliensis = assay: Antibacterial activity against Nocardia brasiliensis assessed as reduction in microbial growth after 18 hrs by MTT based broth dilution method; format: functional
Heterosigma akashiwo = assay: Anti-phytoplankton activity against Heterosigma akashiwo after 96 hrs by fluorometric method; format: functional, organism-based
Bacillus anthracis = assay: Antibacterial activity against Bacillus anthracis assessed as reduction in microbial growth after 18 hrs by MTT based broth dilution method; format: functional
Klebsiella aerogenes = assay: Antibacterial activity against Enterobacter aerogenes assessed as reduction in microbial growth after 18 hrs by MTT based broth dilution method; format: functional
[1] = Antifungal activity against Gloeosporium musarum assessed as reduction in microbial growth; format: functional
Isochrysis galbana = assay: Anti-phytoplankton activity against Isochrysis galbana after 96 hrs by fluorometric method; format: functional, organism-based
Salmonella typhi = assay: Antibacterial activity against Salmonella typhi assessed as reduction in microbial growth after 18 hrs by MTT based broth dilution method; format: functional, Salmonella enterica subsp. enterica serovar Typhi; details: Salmonella enterica
Pseudomonas aeruginosa = assay: Antibacterial activity against Pseudomonas aeruginosa assessed as reduction in microbial growth after 18 hrs by MTT based broth dilution method; format: functional
Shigella dysenteriae = assay: Antibacterial activity against Shigella dysenteriae assessed as reduction in microbial growth after 18 hrs by MTT based broth dilution method; format: functional
Karenia mikimotoi = assay: Anti-phytoplankton activity against Karenia mikimotoi after 96 hrs by fluorometric method; format: functional, organism-based
Pestalotiopsis calabae = assay: Antifungal activity against Pestalotia calabae assessed as reduction in microbial growth; format: functional
[2] = tested on: Salmonella enterica subsp. enterica serovar Paratyphi B; assay: Antibacterial activity against Salmonella paratyphi B assessed as reduction in microbial growth after 18 hrs by MTT based broth dilution method; format: functional
Micrococcus luteus = assay: Antibacterial activity against Micrococcus lysodeikticus assessed as reduction in microbial growth after 18 hrs by MTT based broth dilution method; format: functional
Tetraselmis helgolandica = assay: Anti-phytoplankton activity against Platymonas helgolandica after 96 hrs by fluorometric method; format: functional, organism-based
Bacillus cereus = assay: Antibacterial activity against Bacillus cereus assessed as reduction in microbial growth after 18 hrs by MTT based broth dilution method; format: functional
Proteus vulgaris = assay: Antibacterial activity against Proteus vulgaris assessed as reduction in microbial growth after 18 hrs by MTT based broth dilution method; format: functional
Escherichia coli = assay: Antibacterial activity against Escherichia coli assessed as reduction in microbial growth after 18 hrs by MTT based broth dilution method; format: functional
Candida albicans = assay: Antifungal activity against Candida albicans assessed as reduction in microbial growth; format: functional
Colletotrichum truncatum = assay: Antifungal activity against Colletotrichum truncatum assessed as reduction in microbial growth; format: functional
Priestia megaterium = assay: Antibacterial activity against Bacillus megaterium assessed as reduction in microbial growth after 18 hrs by MTT based broth dilution method; format: functional
Kocuria rhizophila = assay: Antibacterial activity against Kocuria rhizophila assessed as reduction in microbial growth after 18 hrs by MTT based broth dilution method; format: functional

CC1=C(Cc2c(C)cccc2O)C(=O)[C@@](C)(O)[C@@H](O)C1
MIC (Vibrio parahaemolyticus): 0.39 µg/mL | MIC (Bacillus subtilis): 0.19 µg/mL | MIC (Nocardia brasiliensis): 0.19 µg/mL | EC50 (Heterosigma akashiwo): > 50 µg/mL | MIC (Bacillus anthracis): 0.19 µg/mL | MIC (Klebsiella aerogenes): 0.19 µg/mL | MIC [1]: 3.13 µg/mL | EC50 (Isochrysis galbana): > 50 µg/mL | MIC (Salmonella typhi): 0.19 µg/mL | MIC (Pseudomonas aeruginosa): 0.19 µg/mL | MIC (Shigella dysenteriae): 3.13 µg/mL | EC50 (Karenia mikimotoi): > 50 µg/mL | MIC (Pestalotiopsis calabae): 1.56 µg/mL | MIC [2]: 0.19 µg/mL | MIC (Micrococcus luteus): 0.39 µg/mL | EC50 (Tetraselmis helgolandica): 12.3 µg/mL (≈ 44.5 µM) | MIC (Bacillus cereus): 0.19 µg/mL | MIC (Proteus vulgaris): 0.39 µg/mL | MIC (Escherichia coli): 1.56 µg/mL | MIC (Candida albicans): 1.56 µg/mL | MIC (Colletotrichum truncatum): 1.56 µg/mL | MIC (Priestia megaterium): 0.19 µg/mL | MIC (Kocuria rhizophila): 0.19 µg/mL

CC1=C(Cc2c(C)cccc2O)C(=O)[C@@](C)(O)[C@H](O)C1
MIC (Vibrio parahaemolyticus): 3.13 µg/mL | MIC (Bacillus subtilis): 1.56 µg/mL | MIC (Nocardia brasiliensis): 0.39 µg/mL | EC50 (Heterosigma akashiwo): > 50 µg/mL | MIC (Bacillus anthracis): 0.39 µg/mL | MIC (Klebsiella aerogenes): 1.56 µg/mL | MIC [1]: 3.13 µg/mL | EC50 (Isochrysis galbana): > 50 µg/mL | MIC (Salmonella typhi): 0.19 µg/mL | MIC (Pseudomonas aeruginosa): 1.56 µg/mL | MIC (Shigella dysenteriae): 6.25 µg/mL | EC50 (Karenia mikimotoi): > 50 µg/mL | MIC (Pestalotiopsis calabae): 3.13 µg/mL | MIC [2]: 0.39 µg/mL | MIC (Micrococcus luteus): 0.78 µg/mL | EC50 (Tetraselmis helgolandica): 16.8 µg/mL (≈ 60.8 µM) | MIC (Bacillus cereus): 0.39 µg/mL | MIC (Proteus vulgaris): 1.56 µg/mL | MIC (Escherichia coli): 3.13 µg/mL | MIC (Candida albicans): 3.13 µg/mL | MIC (Colletotrichum truncatum): 3.13 µg/mL | MIC (Priestia megaterium): 0.19 µg/mL | MIC (Kocuria rhizophila): 0.39 µg/mL

O=C(O)c1cn(C2CC2)c2cc(N3CCNCC3)c(F)cc2c1=O [CIPROFLOXACIN]
MIC (Vibrio parahaemolyticus): 0.19 µg/mL | MIC (Bacillus subtilis): 0.09 µg/mL | MIC (Nocardia brasiliensis): 0.19 µg/mL | MIC (Bacillus anthracis): 0.19 µg/mL | MIC (Klebsiella aerogenes): 0.05 µg/mL | MIC (Salmonella typhi): 0.09 µg/mL | MIC (Pseudomonas aeruginosa): 0.19 µg/mL | MIC (Shigella dysenteriae): 0.19 µg/mL | MIC [2]: 0.05 µg/mL | MIC (Micrococcus luteus): 0.19 µg/mL | MIC (Bacillus cereus): 0.09 µg/mL | MIC (Proteus vulgaris): 0.09 µg/mL | MIC (Priestia megaterium): 0.19 µg/mL | MIC (Kocuria rhizophila): 0.19 µg/mL

CC(=O)N1CCN(c2ccc(OCC3COC(Cn4ccnc4)(c4ccc(Cl)cc4Cl)O3)cc2)CC1 (centres undefined) [KETOCONAZOLE]
MIC [1]: 0.39 µg/mL | MIC (Pestalotiopsis calabae): 0.78 µg/mL | MIC (Candida albicans): 0.78 µg/mL | MIC (Colletotrichum truncatum): 0.19 µg/mL
